Assay results reported in US7098219B2, “Inhibitors of cellular efflux pumps of microbes” (Wockhart Limited, priority 2000, dated 2006).

The compounds below were run on Mef Efflux Pump of Streptococcus pneumoniae 3514 and Streptococcus pyogenes 26-00 (assay: Two plate diffusion assay for macrolide (Mef) efflux pump inhibitors, azithromycin plate versus control plate). Conditions: zone of inhibition in antibiotic plate (method: azithromycin 0.5 mcg/ml; footnote: levofloxacin) minus water control plate; strain not given.
Format: cell-based

Compared with `COc1c(N2CCC(NC(=O)[C@H](C)N)C(C)(C)C2)c(F)cc2c(=O)c(C(=O)O)cn(C3CC3)c12.Cl` (stereo partly drawn) [Example 8 (Mef), 1-Cyclopropyl-6-fluoro-8-methoxy-1,4-dihydro-7-(4′-(L)-alaninylamino-3′,3′-dimethylpiperidin-1-yl)-4-oxo-quinoline-3-carboxylic acid hydrochloride], `COc1c(N2CCC(NC(=O)[C@@H](N)C(C)C)C(C)(C)C2)c(F)cc2c(=O)c(C(=O)O)cn(C3CC3)c12.Cl` (stereo partly drawn) [Example 10 (Mef), 1-Cyclopropyl-6-fluoro-8-methoxy-1,4-dihydro-7-(3′,3′-dimethyl-4′-L-valinylaminopiperidin-1-yl}-4-oxo-quinoline-3-carboxylic acid hydrochloride] is lower in “Difference in Zone diameter Z1 (mm)” value: 10 mm for the first, 8 mm for the second.

Compared with `COc1c(N2CCC(NC(=O)[C@@H](NC(=O)OC(C)(C)C)C(C)C)C(C)(C)C2)c(F)cc2c(=O)c(C(=O)O)cn(C3CC3)c12` (stereo partly drawn) [Example 9 (Mef), 1-Cyclopropyl-6-fluoro-8-methoxy-1,4-dihydro-7-(3′,3′-dimethyl-4′-N-(t-butoxycarbonyl-L-valyl)-aminopiperidin-1-yl}-4-oxo-quinoline-3-carboxylic acid], `COc1c(N2CCC(NC(=O)[C@@H](N)CC(=O)O)C(C)(C)C2)c(F)cc2c(=O)c(C(=O)O)cn(C3CC3)c12.Cl` (stereo partly drawn) [Example 11 (Mef), 1-Cyclopropyl-6-fluoro-8-methoxy-1,4-dihydro-7-(4′-(L)-aspartylamino-3′,3′-dimethylpiperidin-1-yl}-4-oxo-quinoline-3-carboxylic acid hydrochloride] is higher in “Difference in Zone diameter Z1 (mm)” value: 5 mm for the first, 6 mm for the second.

Going from `CCNC1CCN(c2c(F)cc3c(=O)c(C(=O)O)cn(CC)c3c2F)CC1` [Example 12 (Mef), 1-Ethyl-6,8-difluoro-1,4-dihydro-7-(4′-ethylaminouiperidin-1′-yl)-4-oxo-quinoline-3-carboxylic acid] to `CCNC1CCN(c2cc3c(cc2F)c(=O)c(C(=O)O)cn3-c2ccc(F)cc2F)CC1` [Example 17 (Mef), 1-(2′,4′-Difluorophenyl)-6-fluoro-1,4-dihydro-7-(4′-ethylaminopiperidin-1′-yl)-4-oxo-quinoline-3-carboxylic acid], the “Difference in Zone diameter Z1 (mm)” value falls from 18 mm to 9 mm.

First: CC1CN(c2c(F)c(N)c3c(=O)c(C(=O)O)cn(C4CC4)c3c2F)CCC1N (stereo not drawn) [Example 13 (Mef), 5-Amino-1-cyclopropyl-6,8-difluoro-1,4-dihydro-7-(4′-amino-3′-methylpiperidin-1-yl)-4-oxo-quinoline-3-carboxylic acid]
Second: Nc1c(F)c(NC2CN3CCC2CC3)c(F)c2c1c(=O)c(C(=O)O)cn2C1CC1 (stereo not drawn) [Example 14 (Mef), 5-Amino-1-cyclopropyl-6,8-difluoro-1,4-dihydro-7-(3′-quinuclidinyl-3′-yl-amino)-4-oxo-quinoline-3-carboxylic acid]
The “Difference in Zone diameter Z1 (mm)” value of the first is higher: 20 mm for the first, 8 mm for the second.

Compared with `Nc1c(F)c(C2(N)C3CN(Cc4ccccc4)CC32)c(F)c2c1c(=O)c(C(=O)O)cn2C1CC1` (stereo not drawn) [Example 15 (Mef), 5-Amino-1-cyclopropyl-6,8-difluoro-1,4-dihydro-7-{(1∝,5∝,6∝)-6-amino-N-benzyl-3-azabicyclo[3.1.0]hex-6-yl}-4-oxo-quinoline-3-carboxylic acid], `O=C(O)c1cn(C2CC2)c2nc(N3CC4C(C3)C4NCc3ccccc3)c(F)cc2c1=O` (stereo not drawn) [Example 21 (Mef), 1-Cyclopropyl-6-fluoro-1,4-dihydro-7-{(1∝,5∝,6∝)-6-amino-N-benzyl-3-azabicyclo[3.1.0]hex-6-yl}-4-oxo-1,8-naphthyridine-3-carboxylic acid] is higher in “Difference in Zone diameter Z1 (mm)” value: 14 mm for the first, 17 mm for the second.

Compared with `CN1CCN(c2cc3c(cc2F)c(=O)c(C(=O)O)cn3-c2cccc(F)c2)CC1` [Example 16 (Mef), 1-(3′-Fluorophenyl)-6-fluoro-1,4-dihydro-7-(4′-methylpiperazin-1′-yl)-4-oxo-quinoline-3-carboxylic acid], `Cc1c(F)c(N2CCC(N)CC2)cc2c1c(=O)c(C(=O)O)cn2-c1ccc(F)cc1F` [Example 18 (Mef), 1-(2′,4′-Difluorophenyl)-6-fluoro-5-methyl-1,4-dihydro-7-(4′-aminopiperidin-1′-yl)-4-oxo-quinoline-3-carboxylic acid] is lower in “Difference in Zone diameter Z1 (mm)” value: 10 mm for the first, 8 mm for the second.

Compared with `CNC1CCN(c2cc3c(c(C)c2F)c(=O)c(C(=O)O)cn3-c2ccc(F)cc2F)CC1` [Example 19 (Mef), 1-(2′,4′-Difluorophenyl)-6-fluoro-5-methyl-1,4-dihydro-7-(4′-methylaminopiperidin-1′-yl)-4-oxo-quinoline-3-carboxylic acid], `CC1(C)CN(c2nc3c(cc2F)c(=O)c(C(=O)O)cn3-c2ccc(F)cc2F)CCC1O` (stereo not drawn) [Example 24 (Mef), 1-(2,4-Difluorophenyl)-6-fluoro-1,4-dihydro-7-(3′,3′-dimethyl-4′-hydroxypiperdin-1-yl)-4-oxo-naphthyridine-3-carboxylic acid] is higher in “Difference in Zone diameter Z1 (mm)” value: 8 mm for the first, 10 mm for the second.

Going from `NC1CCN(c2nc3c(cc2F)c(=O)c(C(=O)O)cn3C2CC2)C1` (stereo not drawn) [Example 20 (Mef)] to `NC1CCN(c2nc3c(cc2F)c(=O)c(C(=O)O)cn3-c2ccc(F)cc2F)C1` (stereo not drawn) [Example 22 (Mef)], the “Difference in Zone diameter Z1 (mm)” value falls from 10 mm to 8 mm.

Going from `O=C(O)c1cn(-c2ccc(F)cc2F)c2nc(N3C[C@@H]4[C@H](C3)[C@H]4NCc3ccccc3)c(F)cc2c1=O` [Example 23 (Mef), 1-(2,4-Difluorophenl)-6-fluoro-1,4-dihydro-7-{(1∝,5∝,6∝)-6-amino-N-benzyl-3-azabicyclo[3.1.0]hex-6-yl}-4-oxo-1,8-naphthyridine-3-carboxylic acid] to `CC1CN(c2nc3c(cc2F)c(=O)c(C(=O)O)cn3-c2ccc(F)cc2F)CC(C)C1N` (stereo not drawn) [Example 37 (Mef), 1-(2,4-difluorophenyl)-6-fluoro-1,4-dihydro-7-(4-amino-3,5-dimethylpiperidin-1-yl)-4-oxo-1,8-naphthyridine-3-carboxylic acid], the “Difference in Zone diameter Z1 (mm)” value falls from 15 mm to 7 mm.

Compared with `CC1COc2c(N3CCC(O)C(CN)C3)c(F)cc3c(=O)c(C(=O)O)cn1c23` (stereo not drawn) [Example 27 (Mef), 7H-Pyrido[1,2,3-de]-1,4-benzoxazine-9-fluoro-2,3-dihydro-3-methyl-10-(3′-aminomethyl-4′-hydroxypiperidin-1′-yl)-7-oxo-6-carboxylic acid], `C[C@H]1CCc2c(N3CCC(O)C(F)C3)c(F)cc3c(=O)c(C(=O)O)cn1c23` (stereo partly drawn) [Example 39 (Mef), (S)-(−)-9-Fluoro-6,7-dihydro-8-(4′-hydrox 3′-fluoropiperidin-1-yl)-5-methyl-1-oxo-1H,5H-benzo[i,j]quinolizine-2-carboxylic acid] is lower in “Difference in Zone diameter Z1 (mm)” value: 16 mm for the first, 8 mm for the second.

First: CCNC1CCN(c2c(F)c(C)c3c(=O)c(C(=O)O)cn(C4CC4)c3c2F)CC1(C)C (stereo not drawn) [Example 28 (Mef), 1-Cyclopropyl-6,8-difluoro-5-methyl-1,4-dihydro-7-(3′,3′-dimethyl-4′-ethylaminopiperidin-1-yl)-4-oxo-quinoline-3-carboxylic acid]
Second: CCNC1CCN(c2c(F)cc3c(=O)c(C(=O)O)cn4c3c2CC[C@@H]4C)CC1(C)C (stereo partly drawn) [Example 30 (Mef), (S)-(−)-9-Fluoro-6,7-dihydro-8-(3′,3′-dimethyl-4′-ethylaminopiperidin-1-yl)-5-methyl-1-oxo-1H,5H-benzo[i,j]quinolizine-2-carboxylic acid]
The “Difference in Zone diameter Z1 (mm)” value of the first is higher: 10 mm for the first, 8 mm for the second.

`Cc1c(F)c(F)c(F)c2c1c(=O)c(C(=O)O)cn2C1CC1` [Example 29 (Mef), 1-cyclopropyl-6,7,8-trifluoro-5-methyl-1,4-dihydro-4-oxo-quinoline-3-carboxylic acid] and `COc1c(N2CCC(NC3CC3)CC2)c(F)c(N)c2c(=O)c(C(=O)O)cn(C3CC3)c12` [Example 33 (Mef), 5-Amino-1-cyclopropyl-6-fluoro-8-methoxy-1,4-dihydro-7-(4′-cyclopropylaminopiperidin-1-yl)-4-oxo-quinoline-3-carboxylic acid] are the same in “Difference in Zone diameter Z1 (mm)” value: 10 mm for the first, 10 mm for the second.

Going from `NCC1CN(c2cc3c(cc2F)c(=O)c(C(=O)O)cn3C2CC2)CCC1O` (stereo not drawn) [Example 31 (Mef), 1-Cyclopropyl-6-fluoro-1,4-dihydro-7-(3′-aminomethyl-4′-hydroxypiperidin 1-yl)-4-oxo-quinoline-3-carboxylic acid] to `CC1CN(c2cc3c(cc2F)c(=O)c(C(=O)O)cn3C2CC2)CCC1N(C)C` (stereo not drawn) [Example 32 (Mef), 1-Cyclopropyl-6-fluoro-1,4-dihydro-7-(4′-dimethylamino-3′-methylpiperidin-1-yl)-4-oxo-quinoline-3-carboxylic acid], the “Difference in Zone diameter Z1 (mm)” value rises from 6 mm to 8 mm.

`CCNC1C(C)CN(c2c(F)c(N)c3c(=O)c(C(=O)O)cn(C4CC4)c3c2OC)CC1C` (stereo not drawn) [Example 35 (Mef), 5-Amino-1-cyclopropyl-6-fluoro-8-methoxy-1,4-dihydro-7-{4′-ethylamino-3′,5′-dimethylpiperidin-1-yl}-4-oxo-quinoline-3-carboxylic acid] and `C[C@H]1CCOc2c(N3CCC(N)CC3)c(F)cc3c(=O)c(C(=O)O)cn1c23.Cl` [Example 40 (Mef), 10-Fluoro-11-(4-aminopiperidin-1-yl)-3,4-dihydro-4(S)-methyl-8-oxo-2H,8H-pyrido[1,2,3-ef]-1,5-benzoxazepin-7-carboxylic acid, hydrochloride] are the same in “Difference in Zone diameter Z1 (mm)” value: 13 mm for the first, 13 mm for the second.

`CCOC(=O)c1cn(-c2ccc(F)cc2F)c2nc(N3CCC(N)C(CC)C3)c(F)cc2c1=O` (stereo not drawn) [Example 36 (Mef), Ethyl 1-(2,4-difluorophenyl)-6-fluoro-1,4-dihydro-7-(4-amino-3-ethylpiperidin-1-yl)-4-oxo-1,8-naphthyridine-3-carboxylate] and `CCOC(=O)c1cn(-c2ccc(F)cc2F)c2nc(N3CCC(N)C(C)(C)C3)c(F)c(C)c2c1=O` (stereo not drawn) [Example 38 (Mef), Ethyl 1-(2,4-difluorophenyl)-6-fluoro-5-methyl-1,4-dihydro-7-(4-amino-3,3-dimethylpiperidin-1-yl)-4-oxo-1,8-naphthyridine-3-carboxylate] are the same in “Difference in Zone diameter Z1 (mm)” value: 10 mm for the first, 10 mm for the second.
